Laboratory results taken from patent publication US10942183B2, “Methods of detecting progesterone receptor and of detecting an expression level” (REGENTS OF THE UNIVERSITY OF MINNESOTA, priority 2017, dated 2021).

Key:
[1] = system: PR Ser294 phosphorylation; assay: Breast tumor explants, phospho-Ser294 PR IHC; type: cell-based, human; conditions: progesterone 10 nM plus U0126 (1 nM as printed elsewhere in the source), 2 hours
Excerpt: De-identified breast tumor samples were collected after surgery and immediately processed for tissue explant maintenance on sponges in cell culture medium, as previously described (Ravindranathan et al. Nature Communications 2013, 4:1923). Samples were derived from six patients pathologically diagnosed with invasive ductal carcinoma (IDC) and scored positive for ER (94-100%) and PR (1-100%), and negative for HER2 expression. […] In additional experiments, six explants were similarly treated with estrogen or progesterone (2 hours) but in combination with 1 uM U0126 (to inhibit ERKs 1/2) and phospho-Ser294 PR levels were measured by IHC.
ER+ luminal tumors were maintained as explants as above and instead treated with either vehicle or progesterone (10 nM) for 2 hours in the presence or absence of the MEK1/2 inhibitor U0126 (1 nM) prior to IHC staining using specific antibodies for total and phospho-Ser294 PR as well as ER-alpha and phospho-ERK1/2 (n=6; see Methods).

breast cancer = conditions: women receiving tamoxifen; cited from earlier work
T47D cells = assay: Mammosphere formation in T47D cells; type: cell-based, human; conditions: T47D EV, WT, KR or S294A PR-B; estrogen 1 nM, progesterone 10 nM; 14 days
Method: Primary Mammospheres: Adherent cells were washed with PBS and dissociated enzymatically in 0.25% trypsin-EDTA (Invitrogen Corporation, Carlsbad, Calif.). Cells were sieved through a 40-μm sieve (BD FALCON, BD Biosciences, Bedford, Mass.) and analyzed microscopically for single-cellularity. Single cells were plated in ultra-low attachment plates (Corning, Inc., Corning, N.Y.) and cultured in a humid incubator. Cells were grown in a serum-free mammary epithelial basal medium (MEBM; Lonza Group, Basel, Switzerland) containing 1% B27 Supplement (Invitrogen Corporation, Carlsbad, Calif.), 1% penicillin-streptomycin (Invitrogen Corporation, Carlsbad, Calif.), 5 μg/ml insulin (Invitrogen Corporation, Carlsbad, Calif.), 20 ng/ml EGF (Sigma-Aldrich, St. Louis, Mo.), 1 ng/ml hydrocortisone (Sigma-Aldrich, St. Louis, Mo.), and 100 μM β-mercaptoethanol. […] Mammosphere Forming Efficiency (MFE) % was calculated by the number of mammospheres per well/number of cells seeded per well.
Secondary Mammospheres: Primary mammospheres were collected by centrifugation (5 min, 1000 rpm), and dissociated enzymatically in 0.25% typsin-EDTA. Cells were sieved through a 40-μm tip strainer (Bel-Art SP Scienceware, South Wayne, N.J.) and analyzed microscopically for single-cellularity. […] Mammosphere Forming Efficiency (MFE) % was calculated by the number of mammospheres per well/number of cells seeded per well. […]

[2] = system: PR Ser294 phosphorylation; assay: PR Ser294 phosphorylation in T47D cells (Western blotting, immunofluorescence); type: cell-based, human; conditions: T47D cells expressing WT or KR PR
Method: T47D human breast cancer cell lines engineered to stably express PR variants (null, WT, K388R, or S294A) were previously described (Knutson et al. Breast Cancer Res 2012, 14:R9). T47D cells were maintained in complete minimal essential medium (cMEM) supplemented with 5% fetal bovine serum (FBS), 1% non-essential amino acids (NEAA), 1% penicillin/streptomycin, 6 ng/ml insulin (CellGro, Manassas, Va., USA, catalog #10-010-CV). T47D cells described above were engineered to also stably express RUNX2 shRNAs via the pLKO.1 knockdown expression vector system, which required 25 μg/ml puromycin for the vector. In various experiments, cells or explants were treated with E2, ICI 182 780, R5020, mifepristone, aglepristone, or onapristone (Arno Therapeutics, Inc., Flemington, N.J.).
Immunocytochemistry was performed on T47D cells expressing PR variants to measure total- and phospho-Ser294 PR levels. 500,000 cells were grown on coverslips in 6-well plates, starved in IMEM plus 5% charcoal stripped FBS, treated, and fixed with 4% paraformaldehyde for 20 min. The cells were permeabilized with 0.3% Triton-X100 before incubating with total-PR (clone Ab8, ThermoFisher Scientific, Waltham, Mass.) or custom phospho-Ser294-PR (clone 8508) antibodies. Cells were incubated with fluorescent secondary antibodies (Alexa Fluor 488) and DAPI mounting medium (Life Technologies, ThermoFisher Scientific, Waltham, Mass.) before visualizing on a Zeiss microscope with A4 and L5 filter cubes. Immunoblotting was performed as previously described (Daniel et al. Mol Endocrinol 2007, 21:2890-2906).
In addition, extensive luminal breast cancer heterogeneity may limit the ability to observe a subset of PR-driven breast cancers without patient selection. In this case, PR target gene expression may provide an accurate means of predicting which breast tumors are likely to be influenced by PR-driven biological pathways enacted by active phospho-Ser294 PRs. To probe changes in PR target gene expression in the presence or absence of commonly used PR ligands (R5020, RU486), including diverse antiprogestins (aglepristone, onapristone) currently in development for clinical use, the well characterized model system of T47D breast cancer cells, stably expressing either unmodified wild-type (WT) PR-B or a transcriptionally hyperactive form of deSUMOylated K388R PR-B (KR; this receptor faithfully mimics phosphorylated PR-B with regard to target gene selection) were used (Knutson et al. Pharmacology & therapeutics 2014, 142:114-125; Daniel et al. Mol Endocrinol 2007, 21:2890-2906). Whether the antiprogestins mifepristone (also called RU486), aglepristone, or onapristone alter PR Ser294 phosphorylation were tested in these T47D breast cancer models. Cells were treated for 1 hour with vehicle, progesterone, mifepristone, aglepristone, or onapristone and whole cell lysates were processed for Western blotting or immunofluorescence (IF) analysis (FIG. 4A, B). […] Greater loss of total KR PR protein was also apparent in the presence of progesterone and selected antiprogestins relative to liganded WT PR, consistent with increased turnover of deSUMOylated active receptors relative to intact WT PRs.

[3] = system: PR target gene expression; assay: Global gene expression analysis (Illumina HT-12v4) in T47D cells expressing WT or K388R PR-B; type: cell-based, human; conditions: T47D KR PR, antiprogestin 10^-7 M, 6 hours
Method: For genome-wide microarray expression analysis, T47D cells expressing pIRES-neo3 empty vector, WT PR, or K388R PR were serum starved in modified improved minimum essential media (IMEM) (Gibco, ThermoFisher Scientific, Waltham, Mass.) for one day before treatment. Eight groups were treated with vehicle control, progesterone (10^−8 M), mifepristone (10^−7 M), aglepristone (10^−7 M), onapristone (10^−7 M), or combined treatment of progesterone+mifepristone, progesterone+aglepristone, or progesterone+onapristone for six hours before RNA extraction using a RNeasy kit (QIAgen). DNase I treated (QIAgen) RNA samples from triplicate experiments were prepared for expression analysis using the Illumina HT-12v4 bead chip platform according to standard protocols. Raw data from agonist-treated cells (progesterone or R5020) collected from two identically performed independent experiments (from this study and a previous study: GSE34148 (Knutson et al. Breast Cancer Res 2012, 14:R95)) was combined, normalized, and batch-corrected to ensure that gene expression values were informative across samples from separate experiments. Data were analyzed within multiple common R (R Core Team: R: A language and environment for statistical computing. R Foundation for Statistical Computing, Vienna, Austria 2015, [available on the world wide web at r-project.org/]) and Bioconductor (Gentleman et al. Genome Biol 2004, 5:R80) packages. Raw intensities were log 2 transformed and quantile normalized using lumi (Du et al. Bioinformatics 2008, 24:1547-1548), batch corrected using sva (Leek et al.: sva: Surrogate Variable Analysis. R package version 3.18.0.), and multiple probes for a single gene were collapsed using genefilter (Gentleman et al.: genefilter: genefilter: methods for filtering genes from high-throughput experiments. R package version 1.52.1). Differentially expressed genes (pairwise comparisons between all eight groups) were analyzed in limma (Smyth: Limma: linear models for microarray data. In: Bioinformatics and computational biology solutions using R and Bioconductor. edn.: Springer; 2005: 397-420), where empirical Bayes was used to better estimate the variance of the genes. Biological comparisons (for example, R5020/vehicle) were presented as log 2 fold change including the Benjamini and Hochberg (BH) adjusted P value (Benjamini et al. J Roy Stat Soc B Met 1995, 57:289-300) to account for multiple hypothesis testing. Expression data is available in the GEO database, accession: GSE94363.
Normalized gene expression data were filtered to isolate only high variance genes using the bioconductor package genefilter (Gentleman et al.: genefilter: genefilter: methods for filtering genes from high-throughput experiments. In., R package version 1.50.0 edn: R package version 1.50.0) using interquartile range cutoff value of 0.85. Non-negative matrix factorization (NMF) was performed within R using the NMF package version 0.20.5 (Gaujoux et al. BMC bioinformatics 2010, 11:367) where matrix factors were rank (2-10) and algorithm (brunet or snmf/r) optimized using the nmf function with parameters nrun=30 and seed=123456. […] Clustering and plots were performed in R (NMF package, a heat map function) using Euclidean distance and UPGMA (average) linkage.
PR ligand-mediated promoter selectivity remains understudied, especially in the context of antiprogestins and posttranslationally modified PR species. […]

In the case of `N#CC(=C(/N)Sc1ccccc1N)/C(C#N)=C(\N)Sc1ccccc1N` [U0126], the “effect on progesterone-induced PR Ser294 phosphorylation in tumor explants” value [1] was “blocked”.

In the case of `CC/C(=C(\c1ccccc1)c1ccc(OCCN(C)C)cc1)c1ccccc1` [tamoxifen], the “women suffering tumor relapse” value (breast cancer) is given as ~40%.

In the case of `C[C@]12CC[C@@H]3c4ccc(O)cc4CC[C@H]3[C@@H]1CC[C@@H]2O` [estrogen, estradiol], the “total numbers of primary and secondary mammospheres on addition of hormone to culture media” value (T47D cells) was “had no significant effect on total numbers in any condition”.

In the case of `C/C=C\[C@]1(O)CC[C@H]2[C@@H]3CCC4=CC(=O)CCC4=C3[C@@H](c3ccc(N(C)C)cc3)C[C@@]21C` [aglepristone], the “PR Ser294 phosphorylation, ligand alone” value ([2]; 1 hour) was “stimulated robust PR Ser294 phosphorylation”, the “PR Ser294 phosphorylation in the presence of progesterone (co-treatment)” value ([2]; progesterone plus antiprogestin) was “also induced Ser294 phosphorylation” and the “regulation of PR target genes in cells expressing KR PR” value [3] was “substantially regulate multiple genes in cells expressing KR PR”.
